Values quoted from earlier work as cited in patent EP2818484A1, “Synergistic combination of an anti-IgE antibody and an EP2 receptor agonist” (Universitat Autònoma de Barcelona, priority 2013, dated 2014).

Test system: human lung mast cells
Settings: Kay et al., British Journal of Pharmacology 2006, 147, 707

| SMILES | activation of human lung mast cells |
| --- | --- |
| CCCCC[C@H](O)/C=C/[C@H]1[C@H](O)CC(=O)[C@@H]1C/C=C\CCCC(=O)O [PGE2] | inhibit activation |
| CCCC1([C@H](O)C/C=C/[C@H]2[C@H](O)CC(=O)[C@@H]2CCCCCCC(=O)OC)CCC1 [butaprost] | inhibit activation |
